# Laboratory results from US10369105B2, “Nanoparticulate compositions for targeted delivery of acid labile, lipophilic prodrugs of cancer chemotherapeutics and their preparation” (Veiled Therapeutics LLC, priority 2014, dated 2019).
# How the values were obtained:
# [1] = MTD/tolerability study ATL-1, IV Q1Dx5, nontumored mice
# Experimental: (§1) MTD study consisted of two major phases:
# (§2) Material remaining from the dosing emulsion solutions was shipped back to Arbor Therapeutics after the end of the treatment phase. […] The assessment of returned material was carried out side by side with material retained.
# (§3) Paclitaxel was included as a reference compound. • Tumor Model:
# The studies ATL-1 and ATL-2 consisted each of six groups of five nontumored mice per group for a total of 30 mice on Day 1, the first day of treatment. All treatments were administered intravenously (IV) once a day for five consecutive days (Q1Dx5) beginning on Day 1.
# (§4) Animals in Group 5 (Emulsion control) were treated with a drug free formulation (injection volume of 0.21 mL/20 g of body weight).
# [2] = system: human MDA-MB-231 mammary tumor xenografts; assay: MTD/tolerability and efficacy study ATL-2, IV Q1Dx5, tumored mice
# Experimental: as §1, §2, §3
# […] All treatments were administered intravenously (IV) once a day for five consecutive days (Q1Dx5) beginning on Day 1.
# as §4
# [3] = system: human MDA-MB-231 mammary tumor xenografts; assay: Antitumor efficacy study ATL-3, IV Q1Dx5 and Q4Dx3; assay type: in vivo, human tumor in female athymic NCr-nu/nu mice; details: for complete tumor regressions: ten mice
# Experimental: Experiment ATL-3 was performed to evaluate the antitumor activity of the intravenous (IV) treatment with formulated ART-207 when administered on two different schedules to female, athymic NCr-nu/nu mice implanted subcutaneously (SC) with human MDA-MB-231 mammary tumor xenografts. Paclitaxel was included as a reference compound. • Tumor Model:
# Individual tumors of 90 animals grew to 88-216 mg in weight (88-216 mm3 in size) on Day 10 after tumor fragments implantation, the day of treatment initiation. […] The time points are indicated starting from the first day of treatment with formulated ART-207, vehicle control and Paclitaxel. • Study Design: […]
# Animals in Groups 2, 3, and 4 were treated with formulated ART-207 which was administered IV on a Q1Dx5 schedule starting on Day 0 (Days 0-4) at doses of 105.2, 78.9, and 52.6 mg/kg/injection, respectively. Animals in Group 5 (Emulsion control) were treated IV on Q1Dx5 schedule starting on Day 0 with a drug free formulation. […] Animals in Group 7 were treated with formulated ART-207 which was administered IV once every four days for a total of three injections (Q4Dx3) starting on Day 0 (Days 0, 4, and 8) at a dose of 78.9 mg/kg/injection. Animals in Group 8 (Emulsion control) were treated IV on a Q4Dx3 schedule starting on Day 0 with a drug free formulation. Animals in Group 9 were treated IV on a Q4Dx3 schedule starting on Day 0 with paclitaxel at a dose of 18.9 mg/kg/injection.
# [4] = breast cancer patients; cited from earlier work
# [5] = PK/PD study ATL-4: plasma and tissue concentrations after single IV injection, nontumored mice; assay type: in vivo, female athymic NCr-nu/nu mice; details: paclitaxel 18.9 mg/kg single IV
# Experimental: Tumor Model; Experiment ATL-4. Animals were nontumored.
# Experiment ATL-4: The study consisted of ten groups of three nontumored mice per group for a total of 30 mice on Day 1, one day before the treatment. All treatments were administered as a single IV injection on Day 2.
# [6] = IV Q1Dx5, formulated ART-207 72.6, 47.1, 35.7 and 23.7 mg/kg/injection, paclitaxel 15 mg/kg/injection
# [7] = Study # 1, tumor size 270 mg, Q1Dx5, dose 15 mpk
# [8] = Study # 2, tumor size 150 mg, Q1Dx5, dose 15 mpk
# [9] = paclitaxel 15 mg/kg/injection IV Q1Dx5 (Group 6)
# [10] = paclitaxel 18.9 mg/kg/injection IV Q4Dx3 (Group 9)
smiles,measurement,setting,value
CC(=O)O[C@H]1C(=O)[C@@]2(C)[C@H]([C@H](OC(=O)c3ccccc3)[C@]3(O)C[C@H](OC(=O)[C@H](O)[C@@H](NC(=O)c4ccccc4)c4ccccc4)C(C)=C1C3(C)C)[C@]1(OC(C)=O)CO[C@@H]1C[C@@H]2O [Paclitaxel],maximum tolerated dose (MTD),"[1]; IV Q1Dx5, nontumored mice, no death or more than 20% body weight loss within 14 days of end of treatment",above 15 mg/kg/injection
same,tolerability / deaths (in words),[1]; [6],tolerated without deaths
same,maximum tolerated dose (MTD),"[2]; IV Q1Dx5, tumored mice",below 15 mg/kg/injection
same,tolerability / deaths (in words),[2]; [6],toxic
same,animals died before day 11,"[2]; Paclitaxel 15 mg/kg IV Q1Dx5, day 0 = first treatment",4 of 5
same,Survival rate (end of study),[2]; [7],20%
same,Tumor free mice (end of study),[2]; [7],0%
same,animals euthanized due to being moribund,"[2]; paclitaxel 15 mg/kg/injection IV Q1Dx5, Days 20 and 21",two
same,deaths,"[2]; paclitaxel 15 mg/kg/injection IV Q1Dx5, both deaths on Day 19",two out of five
same,tumor weight of the surviving animal,"[2]; paclitaxel 15 mg/kg/injection, Day 13",180 mg
same,tumor weight of the surviving animal,"[2]; paclitaxel 15 mg/kg/injection, Day 47",32 mg
same,Survival rate (end of study),[3]; [8],40%
same,Tumor free mice (end of study),[3]; [8],40%
same,animals tumor-free on Day 56,[3]; [9],four
same,median tumor growth delay,[3]; [9],31.8 days
same,deaths,"[3]; paclitaxel 15 mg/kg/injection IV Q1Dx5 (Group 6), Day 2",one out of ten
same,animals euthanized due to ataxia,"[3]; paclitaxel 15 mg/kg/injection IV Q1Dx5 (Group 6), Day 12",One
same,complete tumor regressions,[3]; [9],five
same,tolerability / deaths (in words),[3]; [10],tolerated without deaths or mean body weight loss
same,complete tumor regressions,[3]; [10],one
same,half-life (t1/2),[4],3.5 ± 0.80 h
same,AUC(0-t),"[5]; female, athymic NCr-nu/nu, mouse, plasma, read-out: AUClast for paclitaxel in plasma",37.7 µg·h/mL
same,half-life,"[5]; female, athymic NCr-nu/nu, mouse, plasma, read-out: apparent terminal elimination half-life of paclitaxel in plasma (converted)",1 h
same,clearance,"[5]; female, athymic NCr-nu/nu, mouse, plasma, read-out: total body clearance of paclitaxel (converted)",0.5 L/h/kg
same,Vd,"[5]; female, athymic NCr-nu/nu, mouse, plasma, read-out: volume of distribution of paclitaxel at steady state",0.658 L/kg
same,mean peak plasma concentration of paclitaxel,[5]; at 5 minutes (0.083 hours),32.9 µg/mL
